# Literature values as cited in patent US12064400B1 (priority 2022, dated 2024).
# Experiments:
# [1] = in vivo
# [2] = in vivo; remark: listed apart in the source
Compound,time in which a human body may absorb peak levels [1],higher risk for developing a bleed when taking naproxen [2],people in whom common and serious side effects may occur [2]
COc1ccc2cc([C@H](C)C(=O)O)ccc2c1 [naproxen sodium],one to two,,
COc1ccc2cc([C@H](C)C(=O)O)ccc2c1 [naproxen],two to four,ten,three to nine
